Data: patent US20250129021A1, “SMALL MOLECULE PROTEIN SYNTHESIS MODULATORS” (Interdict Bio, Inc., priority 2023, published 2025)

Key:
Assay type in all cases: biochemical
Details in all cases: HeLa S3 lysate, sfGFP/mCherry ratio, 2 hrs at 30° C.
ALK = assay: In vitro transcription-translation (IVTT) assay, ALK reporter
Description: (§1) All reporter constructs have been cloned into the pT7CFE1-CHis plasmid (ThermoFisher #88860) using Gibson assembly procedures (NEB #E2611L). The parental pT7CFE1-CHis plasmid contains an EMCV IRES at the 5′UTR for translation initiation, a multiple-cloning site (MCS) for gene insertion, an optional C-terminal His-epitope tag, and polyA sequence in the 3′UTR to regulate mRNA stability. All reporters are designed to be inserted at the MCS to include a red fluorescent protein (mCherry), P2A self-cleaving peptide which releases the preceding mCherry protein product, and a fusion open reading frame containing a 3×FLAG epitope, a peptide sequence of interest (TEST), and green fluorescent protein (sfGFP).
(§2) Construct Plasmid Preparation: All plasmids are isolated from MACH1 cells (ThermoFisher) grown overnight in ampicillin-containing luria broth, and purified using ZymoPure Express Plasmid Midiprep Kit (Zymo Research). Constructs are sequenced verified and diluted to a working concentration of 110 ng/μL.
(§3) HeLa S3 Lysate Preparation: HeLa S3 cell pellets are acquired from Ipracell/Ipratech (Belgium) and shipped as 4 mL frozen cell pellets on dry ice for storage at −80° C. until use. The procedure for lysate preparation is as follows. Prepare 1× Lysis Buffer, cold and stored on ice:
(§4) Each preparation takes 8 cell pellets (4 ml packed volume each, approximately 1.0×10^9 cells per pellet). Thaw cell pellets from −80° C. on ice for 90 mins. Lay pellets horizontally on top of the ice and rotate every 30 mins to ensure even thawing. Once thawed, add 4 mL of cold lysis buffer to each pellet, and using a serological pipet, gently pipet up and down to break up clumps. Incubate resuspended cells in ice for an additional 30 mins (plunged into ice). During 30 min incubation, rinse and RNase-zap (Ambion) glass dounces (use loose pestle “A”), gently dry and place on ice until needed. Prepare RNase-free Eppendorf tubes for spinning and for batch storage. Add batch labels to 1.5-1.7 mL RNase-free microcentrifuge tubes (labeling scheme below). Each batch will have an extra 1.5-1.7 mL RNase-free microcentrifuge tube for 40 μL of lysate, label the top of this tube (labeling scheme below). After 30 min incubation, transfer all 8 mL of cell pellet to dounce. Cell lysis is complete after douncing 100 times. Aliquot cell lysis into 1.5-1.7 mL temporary-microcentrifuge tubes. Place tubes in centrifuge with “fins” out, and spin at 1,200×g for 5 mins. After the first spin use a 1 mL pipet to resuspend each tube and repeat spin. This acts as an additional lysis step, is more vigorous and increases lysate yield. During second spin get liquid N2 and a fresh conical tube on ice. After spin is complete, transfer supernatant (lysate) from microcentrifuge tubes into the 50 mL conical tube and keep on ice. Repeat steps 10-14 for all other cell pellets until completed. Once all cell lysate has been transferred to the 50 mL conical tube pipet to mix so the solution is homogenous. Transfer 1 mL of lysate into batch-labeled microcentrifuge tubes and flash freeze in liquid nitrogen. Be sure to pipet up and down to mix throughout transfer step. Place all tubes in the […] for long-term storage.
(§5) In vitro transcription-translation assay setup: Each assay includes a master mix containing lysate and shared components, a 96-well plate containing compound titrations for testing, a 96-well DNA plate with reporter constructs to be tested, 96-well skirted PCR plates, and 96-well flat-bottom, black, fluorescent assay plates. […]

KRAS G12D = assay: In vitro transcription-translation (IVTT) assay, KRAS G12D reporter
Description: as §1, §2, §3, §4, §5

MYC = assay: In vitro transcription-translation (IVTT) assay, MYC reporter
Method in brief: (§6)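 Reporter: mCherry, P2A, then 3×FLAG-target peptide-sfGFP fusion, IRES-initiated; HeLa S3 lysate IVTT; cpd dilutions 30 μM−0.1 μM half-log in 100% DMSO (dilution-plate conc); DNA added last; 2 h, 30° C; PBS quench.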

CCND1 = assay: In vitro transcription-translation (IVTT) assay, CCND1 reporter
Method in brief: as §6

MCL-1 = assay: In vitro transcription-translation (IVTT) assay, MCL-1 reporter
Method in brief: as §6

| Compound | IC50 (ALK) | IC50 (KRAS G12D) | IC50 (MYC) | IC50 (CCND1) | IC50 (MCL-1) |
| --- | --- | --- | --- | --- | --- |
| COc1ccc(C[C@H]2NC[C@H](O)[C@H]2OC(=O)NCCN2CCC3(C2)CC(F)(F)C3)cc1 [V187643, (2R,3S,4S)-4-hydroxy-2-[(4-methoxyphenyl)methyl]pyrrolidin-3-yl N-(2-{2,2-difluoro-6-azaspiro[3.4]octan-6-yl}ethyl)carbamate] | 20 to 30 µM | > 30 µM | – | – | – |
| COc1ccc(C[C@H]2NC[C@H](O)[C@H]2OC(=O)NC[C@@H]2CCCO2)cc1 [V187520, (2R,3S,4S)-4-hydroxy-2-[(4-methoxyphenyl)methyl]pyrrolidin-3-yl N-[(2S)-oxolan-2-ylmethyl]carbamate; trifluoroacetic acid] | < 10 µM | > 30 µM | 20 to 30 µM | – | – |
| COc1ccc(C[C@H]2NC[C@H](O)[C@H]2OC(=O)NCCc2cnn(Cc3ccccc3)c2)cc1 [V187439, (2R,3S,4S)-4-hydroxy-2-(4-methoxybenzyl)pyrrolidin-3-yl (2-(1-benzyl-1H-pyrazol-4-yl)ethyl) carbamate] | < 10 µM | 20 to 30 µM | < 10 µM | – | – |
| COc1ccc(C[C@H]2NC[C@H](O)[C@H]2OC(=O)NCCN2CC3(CNC3)C2)cc1 [V187623, (2R,3S,4S)-4-hydroxy-2-[(4-methoxyphenyl)methyl]pyrrolidin-3-yl N-(2-{2,6-diazaspiro [3.3]heptan-2-yl}ethyl)carbamate] | 20 to 30 µM | > 30 µM | > 30 µM | – | – |
| COc1ccc(C[C@H]2NC[C@H](O)[C@H]2OC(=O)NC[C@@H]2NC(=O)CNC2=O)cc1 [V187381, (2R,3S,4S)-4-hydroxy-2-[(4-methoxyphenyl)methyl]pyrrolidin-3-yl N-{[(2S)-3,6-dioxopiperazin-2-yl]methyl}carbamate] | > 30 µM | > 30 µM | > 30 µM | – | – |
| COc1ccc(C[C@H]2NC[C@H](O)[C@H]2OC(=O)NCCN2CCN(Cc3ccccc3)CC2)cc1 [V187465, (2R,3S,4S)-4-hydroxy-2-[(4-methoxyphenyl)methyl]pyrrolidin-3-yl N-[2-(4-benzylpiperazin-1-yl)ethyl]carbamate] | < 10 µM | 10 to 20 µM | < 10 µM | – | – |
| COc1ccc(C[C@@H]2NC[C@@H](O)[C@H]2OC(=O)NCCN(Cc2c[nH]cn2)C(=O)C2CCC2)cc1 [V187540, (2S,3S,4R)-4-hydroxy-2-[(4-methoxyphenyl)methyl]pyrrolidin-3-yl N-{2-[1-cyclobutyl-N-(1H-imidazol-4-ylmethyl)formamido]ethyl}carbamate] | 10 to 20 µM | > 30 µM | > 30 µM | – | – |
| COc1ccc(C[C@H]2NC[C@H](O)[C@H]2OC(=O)NCCN2C[C@@H](O)[C@H](O)C2)cc1 [V187577, (2R,3S,4S)-4-hydroxy-2-[(4-methoxyphenyl)methyl]pyrrolidin-3-yl N-{2-[(3R,4R)-3,4-dihydroxypyrrolidin-1-yl]ethyl}carbamate] | < 10 µM | 10 to 20 µM | > 30 µM | – | – |
| CCC(=O)NNC(=O)O[C@@H]1[C@@H](O)CN[C@@H]1Cc1ccc(OC)cc1 [V187739, 1-{[(2R,3S,4S)-4-hydroxy-2-[(4-methoxyphenyl)methyl]pyrrolidin-3-yl]oxy}-N′-propanoylformohydrazide; trifluoroacetic acid] | < 10 µM | 10 to 20 µM | – | – | – |
| COc1ccc(C[C@H]2NC[C@H](O)[C@H]2OC(=O)Nc2nnc(C)s2)cc1 [V187553, (2R,3S,4S)-4-hydroxy-2-[(4-methoxyphenyl)methyl]pyrrolidin-3-yl N-(5-methyl-1,3,4-thiadiazol-2-yl)carbamate; trifluoroacetic acid] | > 30 µM | > 30 µM | > 30 µM | – | – |
| COc1ccc(CC2NCC(O)C2OC(=O)NC2CC(N)C2)cc1 [V187682, (2R,3S,4S)-4-hydroxy-2-[(4-methoxyphenyl)methyl]pyrrolidin-3-yl N-[(1r,3r)-3-aminocyclobutyl]carbamate] | 10 to 20 µM | > 30 µM | > 30 µM | – | – |
| CCN(CC)Cc1nnc(NC(=O)O[C@@H]2[C@@H](O)CN[C@@H]2Cc2ccc(OC)cc2)s1 [V187552, (2R,3S,4S)-4-hydroxy-2-[(4-methoxyphenyl)methyl]pyrrolidin-3-yl N-{5-[(diethylamino)methyl]-1,3,4-thiadiazol-2-yl}carbamate; trifluoroacetic acid] | > 30 µM | > 30 µM | > 30 µM | – | – |
| COc1ccc(C[C@H]2NC[C@H](O)[C@H]2OC(=O)NNC(=O)Cc2ccccc2)cc1 [V187741, N′-({[(2R,3S,4S)-4-hydroxy-2-[(4-methoxyphenyl)methyl]pyrrolidin-3-yl]oxy}carbonyl)-2-phenylacetohydrazide; trifluoroacetic acid] | < 10 µM | 10 to 20 µM | < 10 µM | – | – |
| COc1ccc(C[C@H]2NC[C@H](O)[C@H]2OC(=O)NCC[C@H]2CN(CC3CCCO3)CCN2Cc2ccccc2)cc1 (stereo partly drawn) [V187345, (2R,3S,4S)-4-hydroxy-2-[(4-methoxyphenyl)methyl]pyrrolidin-3-yl N-{2-[(2S)-1-benzyl-4-(oxolan-2-ylmethyl)piperazin-2-yl]ethyl}carbamate] | > 30 µM | > 30 µM | > 30 µM | – | – |
| COc1ccc(C[C@H]2NC[C@H](O)[C@H]2OC(=O)NCCOCCN(C)C)cc1 [V187383, (2R,3S,4S)-4-hydroxy-2-[(4-methoxyphenyl)methyl]pyrrolidin-3-yl N-{2-[2-(dimethylamino)ethoxy]ethyl}carbamate] | < 10 µM | > 30 µM | – | – | – |
| COc1ccc(C[C@H]2NC[C@H](O)[C@H]2OC(=O)NCCCCCN(C)C)cc1 [V187638, (2R,3S,4S)-4-hydroxy-2-[(4-methoxyphenyl)methyl]pyrrolidin-3-yl N-[5-(dimethylamino)pentyl]carbamate] | < 10 µM | 10 to 20 µM | 10 to 20 µM | – | – |
| COc1ccc(C[C@H]2NC[C@H](O)[C@H]2OC(=O)Nc2n[nH]c(C)n2)cc1 [V187657, (2R,3S,4S)-4-hydroxy-2-[(4-methoxyphenyl)methyl]pyrrolidin-3-yl N-(5-methyl-1H-1,2,4-triazol-3-yl) carbamate] | < 10 µM | 20 to 30 µM | 10 to 20 µM | – | – |
| COc1ccc(C[C@H]2NC[C@H](O)[C@H]2OC(=O)NC[C@@H]2CCCO2)cc1 [V187521, (2R,3S,4S)-4-hydroxy-2-[(4-methoxyphenyl)methyl]pyrrolidin-3-yl N-[(2S)-oxolan-2-ylmethyl]carbamate; trifluoroacetic acid] | – | 10 to 20 µM | < 10 µM | < 10 µM | < 10 µM |
| COc1ccc(C[C@H]2NC[C@H](O)[C@H]2OC(=O)NCCO)cc1 [V187584, (2R,3S,4S)-4-hydroxy-2-[(4-methoxyphenyl)methyl]pyrrolidin-3-yl N-(2-hydroxyethyl)carbamate] | < 10 µM | 10 to 20 µM | – | – | – |
| COc1ccc(C[C@H]2NC[C@H](O)[C@H]2OC(=O)Nc2nnc(CO)s2)cc1 [V187598, (2R,3S,4S)-4-hydroxy-2-[(4-methoxyphenyl)methyl]pyrrolidin-3-yl N-[5-(hydroxymethyl)-1,3,4-thiadiazol-2-yl]carbamate; trifluoroacetic acid] | < 10 µM | < 10 µM | – | – | – |
| COc1ccc(C[C@H]2NC[C@H](O)[C@H]2OC(=O)Nc2ccccc2)cc1 [V187666, (2R,3S,4S)-4-hydroxy-2-[(4-methoxyphenyl)methyl]pyrrolidin-3-yl N-phenylcarbamate] | > 30 µM | > 30 µM | – | – | – |
| COc1ccc(C[C@H]2NC[C@H](O)[C@H]2OC(=O)NNCc2ccno2)cc1 [V187668, 1-{[(2R,3S,4S)-4-hydroxy-2-[(4-methoxyphenyl)methyl]pyrrolidin-3-yl]oxy}-N′-(1,2-oxazol-5-ylmethyl)formohydrazide; trifluoroacetic acid] | < 10 µM | 10 to 20 µM | – | – | – |
